Experiments:
[1] = target: T1, MPK4/12, HT1 and CBC1 recombinant proteins (Arabidopsis thaliana, UniProt Q2MHE4); experiment: in vitro phosphorylation assay: NaHCO3-dependent down-regulation of HT1-mediated CBC1 phosphorylation; assay type: biochemical; conditions: HT1 and CBC1 only, no MPK4/MPK12; 20 mM NaHCO3, 30 min
T1 construct: His; made in house

[2] = target: T2, MPK4/12, HT1 and CBC1 recombinant proteins (Arabidopsis thaliana, UniProt Q2MHE4+Q39024); experiment: as above; assay type: biochemical
T2 construct: His; made in house

[3] = tested on: MPK4/12, HT1 and CBC1 recombinant proteins; experiment: as above; assay type: biochemical, Arabidopsis
MPK4 and HT1 = target: T3, MPK4 and HT1 (Arabidopsis thaliana, UniProt Q2MHE4+Q39024); experiment: in vitro pull-down assay, His-HT1 with GST-MPK4; assay type: binding; conditions: 20 mM NaHCO3 in all buffers
T3 construct: made in house

S-type anion channels = conditions: proposed secondary HCO3- response mechanism (ref. 10); cited from earlier work

T2 sequence (Q39024 whole entry): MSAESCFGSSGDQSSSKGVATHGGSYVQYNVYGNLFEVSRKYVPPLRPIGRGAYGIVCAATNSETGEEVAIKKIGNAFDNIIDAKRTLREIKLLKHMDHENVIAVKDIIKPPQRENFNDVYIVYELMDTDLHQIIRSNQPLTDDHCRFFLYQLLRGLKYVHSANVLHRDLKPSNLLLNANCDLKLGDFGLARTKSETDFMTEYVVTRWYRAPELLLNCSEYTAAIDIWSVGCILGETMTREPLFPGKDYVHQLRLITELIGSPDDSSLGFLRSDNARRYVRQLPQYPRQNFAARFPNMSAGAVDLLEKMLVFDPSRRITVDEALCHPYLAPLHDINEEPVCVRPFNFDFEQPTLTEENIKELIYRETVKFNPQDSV
T2 sequence (Q2MHE4 whole entry): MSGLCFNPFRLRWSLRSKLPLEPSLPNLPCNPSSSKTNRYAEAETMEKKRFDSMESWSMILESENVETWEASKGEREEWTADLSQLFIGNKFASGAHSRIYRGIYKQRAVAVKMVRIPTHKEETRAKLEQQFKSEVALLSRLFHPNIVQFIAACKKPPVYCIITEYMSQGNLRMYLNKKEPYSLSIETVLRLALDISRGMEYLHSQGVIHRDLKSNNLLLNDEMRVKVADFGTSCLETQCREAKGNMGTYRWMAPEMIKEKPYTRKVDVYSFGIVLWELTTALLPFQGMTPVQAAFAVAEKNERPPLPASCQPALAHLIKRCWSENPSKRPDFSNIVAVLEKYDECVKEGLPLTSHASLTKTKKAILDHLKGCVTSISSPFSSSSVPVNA
T3 sequence (Q39024 whole entry): as the sequence (Q39024 whole entry) above
T3 sequence (Q2MHE4 whole entry): as the sequence (Q2MHE4 whole entry) above
T1 sequence (Q2MHE4 whole entry): as above

For `O=C(O)O` [NaHCO3], the “effect of NaHCO3 on CBC1 phosphorylation level” value [1] was “no clear effect”, the EC50 [2] was roughly 7.1 mM and the “effect of NaHCO3 on CBC1 phosphorylation at different pH” value ([2]; MPK4 and HT1 present, high pH conditions at ≥pH 7.5 (buffers pH 6.5 to 8.5)) was “inhibited CBC1 phosphorylation”. For the same molecule, the “effect of NaHCO3 on CBC1 and histone phosphorylation” value ([3]; MPK4 or MPK12 added to HT1 and CBC1, 20 mM NaHCO3, 30 min) was “inhibited both CBC1 phosphorylation and histone phosphorylation”, the “kinase activities of CBC1, HT1 or MPK4 exposed to NaHCO3 individually” value ([3]; each kinase alone, 20 mM NaHCO3, 30 min) was “not affected” and the “CBC1 activity in response to NaHCO3” value ([3]; only MPK12 and CBC1 in the reaction, no HT1, 20 mM NaHCO3) was “not affected”. For the same molecule, the “HT1 kinase activity in response to NaHCO3” value ([3]; only in the presence of MPK12, 20 mM NaHCO3) was “inhibited”, the “effect of HCO3- on binding between MPK4 and HT1” value (MPK4 and HT1) was “greatly enhanced the binding” and the “modulation of activity of S-type anion channels by HCO3-” value (S-type anion channels) was roughly 20%.

Source: patent US20260078398A1, “PLANTS GENETICALLY ENGINEERED FOR INCREASED WATER USE EFFICIENCY AND CARBON INTAKE AND METHODS FOR MAKING AND USING THEM” (The Regents of the University of California, priority 2022, published 2026)
